Laboratory results taken from US20220288151A1, “COMPOSITIONS AND METHODS FOR TREATING NEUROLOGICAL DISEASES” (CARMEL HAIFA UNIVERSITY ECONOMIC CORPORATION LTD., priority 2019, published 2022).

Legend:
WT mice = experiment: Forced swim test; type: in vivo; conditions: WT naive mice, ketamine 5 mg/kg i.p., 30 min before test, vs saline; last 4 min scored
Description: WT mice were injected with ketamine 5 mg/kg or saline i.p., and 30 min later together with the CaMKII Cre/GFP-injected mice were all subjected to the forced swim test (FST). The mice were placed in a 5-liter transparent glass beaker containing 4-liter warm water at 24° C. The mice were video recorded for 6 min. The last 4 min were manually scored for immobility. Total immobility time (in seconds) is presented in the results.

eEF2 (pThr56eEF2) = experiment: Western blot of pThr56eEF2, eEF2 and tubulin in DG and cortex samples after ketamine i.p. injection; type: in vivo, mice; conditions: 30 min after injection; for pThr56eEF2 normalized to total eEF2 in DG lysates: dentate gyrus
Description: Mouse brains were quickly excised and snap frozen immediately in liquid nitrogen, and then transferred to −80° C. for later use. The brains were kept in the cryostat cabin for 15 min at −15° C. before starting tissue punching. Four 500 μm thick coronal sections were sliced slowly, and the DG and cortex tissues from both hemispheres were collected by a mouse tissue puncher. The DG and cortex tissues were transferred to a new tubes and kept immediately on dry ice and then transferred to −80° C. until further use. Brain tissues were homogenized in 100 μl of ice-cold homogenization buffer (HEPES 10 mM pH 7.4, EDTA 2 mM pH 7.4, EGTA 2 mM pH 7.4, DTT 0.5 mM (all from Sigma-Aldrich, Rehovot, Israel), 1× protease inhibitor mixture (Sigma-Aldrich Rehovot, Israel); and 1× phosphatase inhibitor mixture (Sigma-Aldrich)). Protein concentration was determined by a BCA kit (CYANAGEN, PRTD1, 0500). Protein Samples were prepared in SDS sample buffer (22.22% glycerol, 22.22% SDS (20% stock), 26.66% (0.5 M Tris PH 6.8), rest DDW) and β-Mercaptoethanol, then were boiled in 100° C. for 5 min. Each sample was divided to 3 aliquots. Each aliquot was thawed on ice and used for blotting only once or twice. The samples were subjected to 10% or 12% gel SDS-PAGE (electrophoresed on Bio-Rad PAGE apparatus) and Western blot analysis. Each sample was loaded with the same amount of total protein (8-12 μg; according to antibody linearity). After transfer to a […] pore size nitrocellulose membrane or PVDF membrane, the blots were blocked with 5% bovine serum albumin (BSA) or non-fat dry milk (blotting-grade blocker, Bio-Rad) in Tris-buffered saline plus 0.5% tween-20 (TBST) at room temperature for 1 hr. The blots were incubated overnight with the suitable primary antibodies. The blots were then subjected to three 5 min washing steps in TBST, after which they were incubated with the corresponding HRP-conjugated secondary antibodies for 1 h at room temperature followed by three 10 min washing steps with TBST. Immunodetection was performed with the enhanced-chemiluminescence EZ-ECL kit (Biological Industries, Israel). The immunoblots were quantified with a CCD camera and Quantity One software (Bio-Rad).
For all tested proteins, polyacrylamide gels were freshly prepared and used on the same day. Polyacrylamide gels (10%, Tris pH 8.8) were used to analyze the expression of eEF2, pThr56eEF2, vimentin, decorin, AMPK, pThr172AMPK, KIFSA, ERK2, pERK2, pS6K1, S6K1 and tubulin. In addition, criterion gels (BIO-RAD) were used to analyze the expression of NSF protein in the different fractions. Samples containing 10 μg protein were loaded for the detection of each protein. Samples containing 8 μg protein were loaded for ERK and pERK and […] for S6K1 and pS6K1. Each immunoblot was measured relative to the background and normalized to the endogenous control (tubulin), taken from the same gel. Mature-BDNF was analyzed using 12% (Tris pH 8.8) polyacrylamide gel and was measured relative to the background and normalized to tubulin from the same gel. Samples containing 12 μg protein were loaded for mature-BDNF. The phoshpo-protein was normalized to tubulin taken from the same gel as well.

[1] = Body weight during TMZ/vehicle i.p. injection protocol; type: in vivo; conditions: mice given TMZ or vehicle i.p. on three consecutive days per week for four weeks
Description: The enriched environment (groups 2 and 3) included a running wheel, two different objects, small ball, a short plastic tube, bedding, and a nest. Control animals (groups 1 and 4) were in standard cages including bedding and nest. In both conditions, three mice were housed per cage for four weeks. The mice received a TMZ/vehicle i.p. injection three times a week. On day 29, the mice received a BrdU i.p. injection and were perfused 24 h later for IHC analysis. For neurogenesis suppression, TMZ was dissolved in DMSO at 25 mg/ml and diluted to 1.25 mg/ml in sterile saline. The mice were given i.p. injections of saline +5% DMSO (vehicle) or TMZ on three consecutive days followed by four days with no injection for four weeks. On the last week, BrdU was given i.p. in 0.9% NaCl at 200 mg/kg body weight.
Sixteen (16) eEF2K double foxed mice were injected with CaMKII-Cre and GFP viruses to the DG and 3 weeks following virus injection were injected i.p TMZ and vehicle. TMZ was dissolved in DMSO at 25 mg/ml and diluted to 1.25 mg/ml in sterile saline. The mice were given i.p. injections of saline +5% DMSO (vehicle) or TMZ on three consecutive days followed by four days with no injection for four weeks. On the last week, BrdU was given i.p. in 0.9% NaCl at 200 mg/kg body weight. […]

[2] = ketamine 5 mg/kg i.p. vs control, cortex
[3] = ketamine 5 mg/kg i.p. vs saline

Row | SMILES | immobility time in forced swim test (WT mice) | eEF2 protein level normalized to tubulin in cortex tissue (eEF2 (pThr56eEF2); [2]) | pT56eEF2 normalized to eEF2 protein in cortex tissue (eEF2 (pThr56eEF2); [2]) | eEF2 protein levels normalized to tubulin (DG samples) (eEF2 (pThr56eEF2); [3]) | pThr56eEF2 normalized to total eEF2 in DG lysates (eEF2 (pThr56eEF2); [3]) | pThr56eEF2 normalized to total eEF2 in DG lysates (eEF2 (pThr56eEF2); ketamine 5 mg/kg i.p. vs saline, listed as Ketamine) | body weight throughout the experiment [1]
1 | CNC1(c2ccccc2Cl)CCCCC1=O (stereo not shown) [ketamine] | significantly lower immobility time | no change in eEF2 protein level | reduces pT56eEF2 levels | no change in eEF2 protein levels | peEF2 levels were reduced | induces eEF2 dephosphorylation | –
2 | Cn1nnc2c(C(N)=O)ncn2c1=O [TMZ, Temozolomide] | – | – | – | – | – | – | maintained normal body weight
